The values that follow come from publication PMC11822212, “High-throughput screening identifies Aurora kinase B as a critical therapeutic target for Merkel cell carcinoma” (Nature Communications, 2025).

Read-outs that look alike come from different tables or passages of the source.

One assay has as its system MCC13 cells (VN-MCC). Nature of the assay: qHTS cell viability (CellTiter-Glo, 72 h; primary and follow-up small molecule screen). The class given is cell-based, human. (In general: In qHTS, concentration-response curves come from the screen itself.)
For the next assay, the system named is MCC26 cells (VN-MCC). The assay is described as above. The class given is cell-based, human.
Another assay concerns UISO cells (VN-MCC). Described as above. The class given is cell-based, human.
The subject of another assay is WAGA cells (VP-MCC). The assay is described as above. The class given is cell-based, human.
The subject of the next assay is MKL-1 cells (VP-MCC). The assay is described as above. The class given is cell-based, human.
The next assay concerns MKL-2 cells (VP-MCC). The description is as above. The class given is cell-based, human.
The next assay relates to HACAT cells. Nature of the assay: qHTS cell viability (CellTiter-Glo, 72 h; primary screen), control cell line. The class given is cell-based, human.
The next assay relates to HEK293T cells. The description is as above. The class given is cell-based, human.
Another assay has as its system NIH-3T3 cells. The description is as above. It counts as cell-based, mouse.
A further assay concerns CRL-7250 cells. The description is as above. It counts as cell-based.
The test system of assay [1] is MCC cell lines (WAGA, MKL-1, MKL-2, MCC13, MCC26, UISO). Put plainly: qHTS cell viability, all six MCC cell lines as a group (mean AUC, MCC.avg). It counts as cell-based, human.
Assay [2] has as its system VP-MCC cell lines (WAGA, MKL-1, MKL-2). Put plainly: qHTS cell viability, VP-MCC cell lines as a group (mean AUC, VP.MCC.avg). The class given is cell-based, human.
Assay [3] deals with VN-MCC cell lines (MCC13, MCC26, UISO). Nature of the assay: qHTS cell viability, VN-MCC cell lines as a group (mean AUC, VN.MCC.avg). It counts as cell-based, human.
The subject of assay [4] is control cell lines (HACAT, HEK293T, CRL-7250, NIH-3T3). Put plainly: qHTS cell viability, control cell lines as a group (mean AUC, Control.avg). It counts as cell-based.
The test system of assay [5] is six MCC cell lines and four control cell lines. Nature of the assay: qHTS cell viability, all 10 cell lines screened. The class given is cell-based.
The mark [6] stands for this setting: MIPE library, 11-point DRC, sheet S2E.
The mark [7] stands for this setting: MIPE library, 11-point DRC, control cell line, sheet S2E.

The compound `CCCCCC(=O)O[C@]1(C(C)=O)CC[C@H]2[C@@H]3CCC4=CC(=O)CC[C@]4(C)[C@H]3CC[C@@]21C` [Hydroxyprogesterone caproate] showed an MCC13_AUC in the assay with MCC13 cells (VN-MCC) (NPC library, qHTS dose-response AUC, MCC13) of 442.155. The MCC26_AUC is reported as 432.584 in the assay on MCC26 cells (VN-MCC) (NPC library, qHTS dose-response AUC, MCC26) and 432.583 in the assay on MCC26 cells (VN-MCC) (NPC library; qHTS dose-response AUC, MCC26). For the same compound, the UISO_AUC in the assay on UISO cells (VN-MCC) (NPC library, qHTS dose-response AUC, UISO) was determined as 419.635. This compound returned a WAGA_AUC in the assay with WAGA cells (VP-MCC) (NPC library, qHTS dose-response AUC, WAGA) of 360.251. Besides, the MKL1_AUC in the assay with MKL-1 cells (VP-MCC) (NPC library, qHTS dose-response AUC, MKL1) was found to be 343.375. The compound further yielded an MKL2_AUC with MKL-2 cells (VP-MCC) (NPC library, qHTS dose-response AUC, MKL2) of 288.23. Moreover, in the assay with HACAT cells (NPC library, qHTS dose-response AUC, HACAT control), the HACAT_AUC amounted to 471.336. The compound further yielded an HEK293T_AUC in the assay on HEK293T cells (NPC library, qHTS dose-response AUC, HEK293T control) of 404.302. In the assay with NIH-3T3 cells (NPC library, qHTS dose-response AUC, NIH3T3 control), this compound registered an NIH3T3_AUC of 480.983. This compound registered a CRL7250_AUC in the assay on CRL-7250 cells (NPC library, qHTS dose-response AUC, CRL7250 control) of 467.486. Moreover, the MCC_Avg_AUC was found to be 381.038 in assay [1] (NPC library, mean AUC of all 6 MCC cell lines) and 381.038 in [1] (NPC library, mean AUC of six MCC cell lines). The Control-VP-MCC in [2] (Control AUC minus VP-MCC AUC) was 125.408; in assay [2] (NPC library, therapeutic window: Control avg AUC minus VP-MCC avg AUC), 125.408. This compound registered a VP-MCC_Avg_AUC in assay [2] (NPC library, mean AUC of VP-MCC cell lines) of 330.619. Besides, the Control-VN-MCC in assay [3] (Control AUC minus VN-MCC AUC) was determined as 24.569; in [3] (NPC library, therapeutic window: Control avg AUC minus VN-MCC avg AUC), 24.569. The VN-MCC_Avg_AUC in [3] (NPC library, mean AUC of VN-MCC cell lines) turned out to be 431.458. This compound came in with a Control_Avg_AUC in assay [4] (NPC library, mean AUC of control cell lines) of 456.027. Moreover, the Control-MCC in [5] (NPC library, therapeutic window: Control avg AUC minus MCC avg AUC) turned out to be 74.9886.

For `CC(C)(C)OC(=O)Nc1ccc(-c2cc(C(=O)NCCCCCCC(=O)NO)no2)cc1` [ISOX], the MCC13_AUC in the assay with MCC13 cells (VN-MCC) (setting [6]) was 413.98. In addition, the MCC26_AUC in the assay with MCC26 cells (VN-MCC) (setting [6]) amounted to 447.653. The same compound came in with a UISO_AUC in the assay with UISO cells (VN-MCC) (setting [6]) of 418.415. Also, the WAGA_AUC with WAGA cells (VP-MCC) (setting [6]) worked out at 354.914. In the assay on MKL-1 cells (VP-MCC) (setting [6]), this compound showed an MKL1_AUC of 349.979. In the assay with MKL-2 cells (VP-MCC) (setting [6]), this compound gave an MKL2_AUC of 356.229. The compound also registered an HACAT_AUC with HACAT cells (setting [7]) of 439.928. The HEK293T_AUC with HEK293T cells (setting [7]) is 382.485. Also, in the assay on NIH-3T3 cells (setting [7]), the NIH3T3_AUC is reported as 388.752. The same compound came in with a CRL7250_AUC in the assay on CRL-7250 cells (setting [7]) of 411.627. In [1] (MIPE library, mean AUC of six MCC cell lines, sheet S2E), this compound came in with an MCC_Avg_AUC of 390.195. In addition, the Control-VP-MCC in assay [2] (MIPE library, Control AUC minus VP-MCC AUC (therapeutic window), sheet S2E) was determined as 51.9911. In [2] (MIPE library, mean AUC of VP-MCC cell lines, sheet S2E), the VP-MCC_Avg_AUC came out at 353.707. Also, the Control-VN-MCC in assay [3] (MIPE library, Control AUC minus VN-MCC AUC (therapeutic window), sheet S2E) is -20.9846. Further, the VN-MCC_Avg_AUC in assay [3] (MIPE library, mean AUC of VN-MCC cell lines, sheet S2E) was 426.683. Besides, the Control_Avg_AUC in assay [4] (MIPE library, mean AUC of control cell lines, sheet S2E) is on record as 405.698. In assay [5] (MIPE library, Control AUC minus MCC AUC (therapeutic window), sheet S2E), this compound had a Control-MCC of 15.5032.

The compound `CC[C@H]1C[C@@H]2C[C@H]3c4[nH]c5ccc(OC)cc5c4CCN(C2)[C@@H]13.Cl` [Ibogaine hydrochloride] returned an MCC13_AUC in the assay with MCC13 cells (VN-MCC) of 435.55. For the same compound, the MCC26_AUC with MCC26 cells (VN-MCC) was determined as 419.663. Also, the UISO_AUC with UISO cells (VN-MCC) is given as 418.883. The WAGA_AUC in the assay on WAGA cells (VP-MCC) was found to be 409.341. The compound further returned an MKL1_AUC in the assay with MKL-1 cells (VP-MCC) of 439.962. The same compound displayed an MKL2_AUC with MKL-2 cells (VP-MCC) of 442.315. In addition, the HACAT_AUC with HACAT cells is on record as 487.75. The HEK293T_AUC in the assay with HEK293T cells is reported as 455.404. The NIH3T3_AUC in the assay with NIH-3T3 cells was found to be 484.099. Moreover, in the assay on CRL-7250 cells, the CRL7250_AUC turned out to be 490.013. The compound further came in with an MCC_Avg_AUC in [1] of 427.619. In [2], this compound yielded a Control-VP-MCC of 48.777 and a VP-MCC_Avg_AUC of 430.539. Further, in [3], the Control-VN-MCC was found to be 54.6174 and the VN-MCC_Avg_AUC was 424.699. Besides, in assay [4], the Control_Avg_AUC is listed as 479.316. In assay [5], this compound showed a Control-MCC of 51.6972.
